Drawing on ChEMBL document CHEMBL2440110, “Synthesis of azide derivative and discovery of glyoxalase pathway inhibitor against pathogenic bacteria” (Bioorg Med Chem Lett, 2013), this text covers Activity and MIC90 for 2 compounds.

One data set relates to PBMC. Nature of the data set: Cytotoxicity against PBMC (unknown origin) at 0.05 mM after 8 hrs by MTT assay. It is filed as cell-based. To be noted: 50 µM. A general note: Tetrazolium assays rely on reduction of a dye to a coloured formazan, in cell work by metabolically active cells.
In data set [1] the test system is Mycolicibacterium smegmatis. Nature of the data set: Antibacterial activity against Mycobacterium smegmatis. It is filed as functional.
Another data set has as its system Staphylococcus aureus. Nature of the data set: Antibacterial activity against Staphylococcus aureus after 24 hrs by Alamar blue assay. The format is functional. Background: Resazurin is reduced to fluorescent resorufin, in cell work by metabolically active cells.
The subject of data set [2] is Burkholderia thailandensis. The data set can be described thus: Antibacterial activity against Burkholderia thailandensis. It is filed as functional.

Each structure is given as a SMILES string. ≈ marks a conversion by molar mass, not a printed value.

Broadly, the MIC90 is the lowest concentration that inhibits either 90% of growth or 90% of the strains tested, depending on the study. Higher therefore signals weaker potency. Turning to `COC(=O)[C@@H](N=[N+]=[N-])[C@@H](OC(=O)CNC(=O)C(CS)NC(=O)CCC(NC(=O)OCc1ccccc1)C(=O)O)C(=O)OC` (stereo partly specified), in the data set with PBMC, the Activity result is “Non-toxic”. Also, the MIC90 in data set [1] amounted to 6 µg/mL (≈ 9.58 µM); in the data set on Staphylococcus aureus, 5 µg/mL (≈ 7.98 µM).

Turning to `O=C(O)CNC(=O)C(CS)NC(=O)CCC(NC(=O)OCc1ccccc1)C(=O)O` (stereo unspecified), the Activity entry in the data set with PBMC is on record as “Non-toxic”. In addition, the MIC90 in data set [2] came to 12.5 µg/mL (≈ 28.3 µM); in the data set with Staphylococcus aureus, 20 µg/mL (≈ 45.3 µM).
